Our source for the TGI values is PubChem BioAssay (NCI).

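How tested: cells in 96-well plates exposed to compound for 48 hours at five concentrations. TGI: total growth inhibition.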

Holding throughout (experiment): NCI anticancer screen, dose series, 48 h
The test system of experiment [1] is OVCAR-8 ovarian.
The subject of experiment [2] is HCT-15 colon.
Experiment [3] deals with UO-31 renal.
For experiment [4], the system named is SF-539 CNS.
Experiment [5] deals with HOP-62 NSCLC.
For experiment [6], the system named is K-562 leukemia.
Experiment [7] relates to OVCAR-4 ovarian.
For experiment [8], the system named is SK-OV-3 ovarian.
Experiment [9] deals with MOLT-4 leukemia.
In experiment [10] the test system is 786-0 renal.

In the case of `O=C1CSC(C(N=Nc2ccc(Cl)cc2)c2nc3ccccc3[nH]2)=N1` (stereo unspecified), the TGI in experiment [1] is over 100 µM; in [2], over 100 µM; in experiment [3], over 100 µM; in experiment [4], 52.9 µM; in [5] it was over 100 µM; in experiment [6], over 100 µM. Besides, the TGI is over 100 µM in experiment [7], over 100 µM in experiment [8] and 39.8 µM in experiment [9].

On to `COc1cc2cc(C(=O)N3CC(CCl)c4c3cc(O)c3ccccc43)[nH]c2c(OC)c1OC` (stereo unspecified), for which the TGI is over 50 µM in experiment [1]; 0.588 µM in experiment [2]; over 50 µM in experiment [3]; under 0.005 µM in experiment [4]; over 50 µM in experiment [6]; 0.996 µM in [8]. Also, the TGI came out at 0.506 µM in experiment [10] and 0.153 µM in [9].

As to `CCCCc1c2c(nc3c1CC/C(=C\c1ccc([N+](=O)[O-])cc1)C3=O)CCCC2`, the TGI worked out at 3.47 µM in experiment [1]; 1.16 µM in [2]; 4.13 µM in experiment [3]; 3.2 µM in experiment [4]; 3.29 µM in experiment [5]; 6.88 µM in [6]. The TGI amounted to 3.91 µM in experiment [8], 2.77 µM in [10] and 7.72 µM in [9].

With `COC(=O)C1=COc2c(n(C)c3ccccc23)-c2ccccc21`, the TGI in [1], in experiment [2], in experiment [3], in experiment [4], in [5] and in [6] was over 100 µM each time. For the same molecule, the TGI in experiment [8], in [10] and in experiment [9] was over 100 µM throughout.

Take `Cc1nc2ccccc2n1Cc1nnc2n1N=C(c1ccccc1)CS2`: the TGI in experiment [2], in experiment [3], in experiment [4], in experiment [5], in experiment [7] and in experiment [8] was over 100 µM in each case. The TGI in experiment [10] and in experiment [9] was over 100 µM in each case.

For the molecule `CC(=O)OCCOCCN1CCN(c2c(O)c3c(c(O)c2Cl)C(=O)C=CC3=O)CC1`, the TGI came to 2.66 µM in experiment [1]; 1.23 µM in experiment [2]; 2.47 µM in experiment [3]; 3.37 µM in experiment [4]; 7.1 µM in experiment [5]; 1.32 µM in [7]. Further, the TGI in [8] stood at 6.06 µM; in [10], 0.913 µM; in [9], 2.51 µM.

With `CC(C)N(/C(F)=N\C(=O)Nc1ccccc1C(F)(F)F)C(C)C`, the TGI in [1], in experiment [2], in [3], in [4], in [5] and in experiment [6] was over 100 µM throughout. The TGI in [8] and in [10] was over 100 µM each time.

For `CC(C)[C@](O)(C(=O)OCC1=CCN2CC[C@@H](O)[C@@H]12)[C@H](C)O`, the TGI in experiment [1], in experiment [2], in experiment [3], in experiment [4], in experiment [5] and in [6] was over 375 µM throughout. The TGI in [7], in experiment [8] and in experiment [9] was over 375 µM in each case.

Take `S=C(c1c[nH]c2ccccc12)N1CCCCC1`: the TGI in experiment [1], in [2], in experiment [4], in [5], in experiment [6] and in experiment [8] was over 100 µM throughout. Besides, the TGI in experiment [10] and in [9] was over 100 µM throughout.

Take `NC(C(=O)OC(=O)c1ccccc1)C(=O)OC(=O)c1ccccc1`: the TGI in experiment [1], in [2], in [3], in experiment [4], in [5] and in experiment [6] was over 100 µM in each case. In addition, the TGI in [7], in experiment [10] and in experiment [9] was over 100 µM each time.

For `O=c1[nH]c(=O)n2n1C1C=CC2CC1`, the TGI in experiment [1], in experiment [2], in experiment [3], in [4], in experiment [5] and in [6] was over 100 µM in each case. For the same molecule, the TGI in experiment [8], in [10] and in [9] was over 100 µM each time.

Take `CN(C)Cc1cc(C(=O)/C=C/c2ccc(F)cc2)cc(CN(C)C)c1O`: the TGI in experiment [1] came out at 83.9 µM; in [2] it was 30.3 µM; in experiment [3], 38.9 µM; in experiment [4] it was 44.4 µM; in experiment [5] it was 58.5 µM; in [6] it was 62.5 µM. For the same molecule, the figures for the TGI in [7], in experiment [10] and in [9] were over 100 µM, over 100 µM and 53.8 µM, respectively.

Take `COc1ccc(/C=C2\CN(C)CC3C2=NN(c2ccccc2)C3c2ccc(OC)cc2)cc1` (stereo unspecified): the TGI in [1], in experiment [2], in [3], in experiment [5], in experiment [6] and in [7] was over 100 µM throughout. Also, the results for the TGI in experiment [8], in experiment [10] and in experiment [9] were 55.1 µM, over 100 µM and over 100 µM, respectively.

Consider `Cc1cc(C)c(C(=O)/C=C/c2ccccc2)c(C)c1`, for which the TGI is 30 µM in experiment [1]; 51.3 µM in experiment [2]; over 100 µM in [3]; 76 µM in [5]; over 100 µM in [6]; 81.6 µM in [7]. The TGI in [8] was over 100 µM; in [10], 81.6 µM; in experiment [9], over 100 µM.

As to `CCCCS(=O)CC(CO)NC(=O)/C=C/c1c(C)[nH]c(=O)[nH]c1=O` (stereo unspecified), the TGI in experiment [1] came out at 32.4 µM; in experiment [2] it was 183 µM; in experiment [3], 73.3 µM; in [4] it was 35.4 µM; in [5], 45 µM; in experiment [6], 82.1 µM. Besides, the TGI in [7] was 26.4 µM; in [8], 65.3 µM; in [9], 50 µM.
